The subject of series [1] is normal human keratinocytes. Nature of the series: DNA synthesis rate (3H-thymidine incorporation) in normal human keratinocytes. It is filed as cell-based. The settings on record: for activity at 1 µM / activity at 0.01 µM / activity at 0.1 µM / activity at 0.001 µM: read-out: DNA synthesis of keratinocytes; for activity at 0.01 µM: 10 nM. From the text:
Initiation of differentiation of keratinocytes is accompanied by inhibition of their growth. The rate of synthesis of DNA determined by the incorporation of radiolabeled substrate [^3 H] thymidine, is an indicator of the rate of growth of the cells. A decrease in DNA synthesis therefore indicates decrease in growth and increase in differentiation of keratinocytes.
Methodology Used for Determining the Rate of DNA Synthesis in Keratinocytes After Treatment With Various Actives
1. Normal human keratinocytes isolated from neonatal foreskins by trypsin treatment were grown in DME medium/10% fetal calf serum in the presence of irradiated 3T3 mouse fibroblasts for establishing dividing keratinocyte colonies. Keratinocytes were grown under the above condition until their third passage.
2. For the experiments, third passage keratinocytes were plated into a serum-free keratinocyte growth medium (KGM; obtained from Clonetics Corporation, San Diego, Calif.) containing 0.15 mM calcium. 20,000 to 30,000 cells were plated into each well of 24 well cell culture plates and grown for 5 days, until the cells reach about 80% confluence.
3. Medium was changed to fresh medium and the various test materials were added to the medium from an ethanolic stock solution (10 A.M.). The final ethanol concentration in the cultures was kept below 0.2%. Control cultures received no tested material but were dosed with 0.2% ethanol. Each compound or combination was tested in three separate wells. By 4 P.M., 1 uCi of ^3 H-thymidine (AmerSham Corp., Sp activity 40 Ci/mmol) was added to the 1 ml medium in each well. The cells were incubated overnight and 24 hours later (10 A.M. next day) the amount of ^3 H-thymidine associated with the cellular DNA of keratinocytes was assessed as described below.
4. The medium was aspirated, and the wells washed with 1 ml phosphate-buffered saline. The DNA and proteins of the cells in the plate were then precipitated by adding 1 ml of ice-cold 10% trichloroacetic acid (TCA). The plates were left on ice for 30 minutes to complete the precipitation process. TCA was then aspirated and each well was then washed four times with 5% TCA. The plates were then dried on a filter pad and the cells in the wells were dissolved in 0.5 ml of 0.1N sodium hydroxide. The sodium hydroxide was then neutralized using 0.1N hydrochloric acid and the solution (1 ml total volume) was then transferred to a scintillation vial. 100 ul samples from each vial were used for protein assay using BCA protein assay reagent obtained from Pierce Chemical Company. 8 ml of a scintillation fluid (Ecolume) was added to the rest of the solution in the vial, and the vials were counted in a scintillation counter to determine the amount of radioactivity in each vial. The DNA synthesis rate was then calculated as cpm ^3 H thymidine incorporated into total cellular DNA/microgram of cell protein for each individual well. Mean and standard deviation for each group was also calculated.
5. All lipids listed in Tables 1-5 below were synthesized in-house. 25-OH-D3 and 1,25-(OH)2 D3 were obtained from Hoffman La Roche. Vitamin D3 was obtained from Sigma.
(In general: Dividing cells build labelled thymidine or BrdU into new DNA.)

Series [2] has as its system keratinocytes. To be noted: applied topically to skin; MacLaughlin et al.; cited from earlier work.
Series [3] concerns keratinocytes. The settings on record: MacLaughlin et al.; Bikle et al.; cited from earlier work.
Series [4] deals with normal human keratinocytes. Nature of the series: Vitamin D3 metabolites' uptake by keratinocytes (cell associated radioactivity). It is filed as in vitro ADME. To be noted: for Uptake by keratinocytes, cell associated radioactivity: 60 picomolar, mean of duplicate. As to the method:
Normal human keratinocytes were grown to confluence in Keratinocyte growth medium (KGM) containing 0.15 mM calcium. Medium was changed to fresh medium. The cells were then incubated in duplicate with 10,000 cpm (60 picomolar, or 25 picogram/ml medium) of 25-OH-D3 or 1,25-(OH)2 D3 for various times (0 to 240 minutes). At different time intervals indicated in the Table below, the medium of appropriate wells were aspirated, and the wells were washed three times with a 0.2% bovine serum albumin solution in 50 mM Tris/0.15M sodium chloride buffer pH 7.4. After the wash the cells in the wells were dissolved in 0.1N sodium hydroxide, neutralized with 0.1N hydrochloric acid, mixed with 5 ml of scintillation fluid (Ecolume) and counted in a beta counter. The amount of cpm associated with the cells was calculated as the percent of total cpm added for each time point studied. Data in the table is expressed as cell associated radioactivity as % of total added. Each reported result is a mean of duplicate determinations.

[5] abbreviates: Homo sapiens, Keratinocyte, Table 5, 3 μM lipid, 0 nM 25-OH-D3, * = statistically significant growth inhibition.

Each structure is given as a SMILES string. “Also recorded” adds a separate entry of the source. Like-named read-outs stand apart in the source and are kept apart here.

Consider `CCCCCCCCCCCCC/C=C/C(O)C(CO)NC(C)=O` (stereo not shown) [Ceramide (Formula A)], for which the activity at 0.3 µM in series [1] (Homo sapiens, Keratinocyte, Table 2, ceramide alone, 0.3 μM, Test 3) was found to be 146 ± 21%. In addition, the activity at 1 µM in series [1] (Homo sapiens, Keratinocyte, Table 2, ceramide alone, 1.0 μM, Test 1) was 115 ± 11%; in series [1] (Homo sapiens, Keratinocyte, Table 2, ceramide alone, 1.0 μM, Test 2), 83.1 ± 6%. Further, the activity at 3 µM in series [1] (Homo sapiens, Keratinocyte, Table 2, ceramide alone, 3.0 μM, Test 3) turned out to be 112 ± 13%; in series [1] (Homo sapiens, Keratinocyte, Table 4, 3.0 μM ceramide, 0 vitamin D3 or metabolite (ethanol vehicle only)), 87.9 ± 0.8%; in series [1] (setting [5]), 88 ± 0.8%. For the same molecule, the activity at 10 µM in series [1] (Homo sapiens, Keratinocyte, Table 2, ceramide alone, Test 1) stood at 105 ± 22.4%; in series [1] (Homo sapiens, Keratinocyte, Table 2, ceramide alone, Test 2, * = statistically significant growth inhibition), 69.9 ± 10%; in series [1] (Homo sapiens, Keratinocyte, Table 2, ceramide alone, Test 3, * = statistically significant growth inhibition), 66 ± 14%. The minimal effective concentration in series [1] (Homo sapiens, Keratinocyte, Table 2 summary, only at the highest concentration, 2 out of 3 experiments, read-out: concentration at which statistically significant growth inhibition occurred) is 10 µM.
For the molecule `C=C1CC[C@H](O)C/C1=C/C=C1\CCC[C@]2(C)[C@@H]([C@H](C)CCCC(C)C)CC[C@@H]12` [vitamin D3], the keratinocyte prodifferentiating activity entry in series [2] is reported as “neither has keratinocyte prodifferentiating activity”. Further, the “conversion in skin / keratinocytes” value in series [3] was “nor is it converted in the skin to 25-OH-D3 derivative”. Also, the “statistically significant growth inhibition” value in series [1] (Table 4 summary, vitamin D3 alone) is on record as “does not show statistically significant growth inhibition”.
Take `CCCCCCCCCCCCCCC(O)CN(CCO)C(C)=O` (stereo not shown) [pseudoceramide (Formula C)]: the activity at 3 µM in series [1] (setting [5]) stood at 51.4 ± 4%.
`C=C1CC[C@H](O)C/C1=C/C=C1\CCC[C@]2(C)[C@@H]([C@H](C)CCCC(C)(C)O)CC[C@@H]12` [Formula 25-OH--D3, 25-hydroxycholecalciferol]: the “conversion in skin / keratinocytes” value in series [3] is on record as “converted to 1,25-(OH)2 D3 in keratinocyte cultures”. Also, the “Uptake by keratinocytes, cell associated radioactivity” value was 2.5 % of total added in series [4] (0 minutes); 3.2 % of total added in series [4] (2 minutes); 0.3 % of total added in series [4] (5 minutes); 3.4 % of total added in series [4] (10 minutes); 8.3 % of total added in series [4] (15 minutes); 8.1 % of total added in series [4] (30 minutes). The results for the “Uptake by keratinocytes, cell associated radioactivity” value in series [4] (60 minutes), in series [4] (120 minutes) and in series [4] (240 minutes) were 6.2 % of total added, 6.8 % of total added and 9.8 % of total added, respectively. Further, the “uptake rate by keratinocytes / skin cells” value in series [4] (Table 6 summary) is given as “slower uptake; also recorded: taken up by keratinocytes at a substantially slower rate than 1,25-(OH)2 D3”. Further, the activity at 0.01 µM in series [1] (Homo sapiens, Keratinocyte, Table 1, compound alone, Test 2) came to 86.5 ± 9%; in series [1] (Homo sapiens, Keratinocyte, Table 1, compound alone, Test 3), 95.2 ± 6.8%; in series [1] (Homo sapiens, Keratinocyte, Table 3, 25-OH-D3 alone) it was 97.2 ± 5.92%. In addition, the activity at 0.1 µM came out at 86.5 ± 5.4% in series [1] (Homo sapiens, Keratinocyte, Table 1, compound alone, 100 nM, Test 1, * = statistically significant growth inhibition); 79.1 ± 2.6% in series [1] (Homo sapiens, Keratinocyte, Table 1, compound alone, 100 nM, Test 2, * = statistically significant growth inhibition); 86.5 ± 5.47% in series [1] (Homo sapiens, Keratinocyte, Table 3, 25-OH-D3 alone, 100 nM); 88.5 ± 7.2% in series [1] (Homo sapiens, Keratinocyte, Table 5, 100 nM 25-OH-D3, no ceramide). Further, the activity at 1 µM in series [1] (Homo sapiens, Keratinocyte, Table 1, compound alone, 1000 nM, Test 2, * = statistically significant growth inhibition) was determined as 78.9 ± 5.4%; in series [1] (Homo sapiens, Keratinocyte, Table 3, 25-OH-D3 alone, 1000 nM), 67.8 ± 5.92%. In addition, the activity at 0.001 µM in series [1] (Homo sapiens, Keratinocyte, Table 3, 25-OH-D3 alone, 1 nM (second line)) is 99.3 ± 1.91%; in series [1] (Homo sapiens, Keratinocyte, Table 3, 25-OH-D3 alone, first line, concentration printed as 1 nM) it was 100 ± 4.71%. In series [1] (Homo sapiens, Keratinocyte, read-out: concentration at which statistically significant cell growth inhibition was consistently observed, Table 1 summary, compound alone, only at this concentration), the minimal effective concentration was determined as 1 µM.

The record behind these values is US5476661A, “Compositions for topical application to skin, hair and nails” (Elizabeth Arden Co., Division of Conopco, Inc., priority 1994, dated 1995).
